Measurements taken from patent US20140221414A1 (priority 2009, published 2014).
In brackets after ≈: the same amount, converted by molar mass. Where two headings read alike, the source gives them in different places.

Experiments:
[1] = oral 400 mg, healthy volunteers, cited from earlier work
[2] = test system: E. Coli; experiment: Anti-microbial activity by cup plate / well plate method (zone of inhibition); assay type: cell-based; settings: 200 μl per well, 37° C., 24 hrs
Description: The measurement of zone diameters estimates the susceptibility of bacteria to antimicrobial compounds.
Prepare a nutrient agar medium in distilled water and sterilize this media in autoclave at 121° C. for 15 min. Transfer this media aseptically in sterile petriplate, allow the media to solidify for few minutes. After solidification, add test micro-organism i.e. E. Coli (100 μl) in each plate and spread this culture with the help of spreader. Prepare the well in plate with the help of borer.

[3] = physchem; assay type: physicochemical; settings: thermodynamic from solid
Text: Another embodiment relates to various methods for screening and analyzing methods and preparations that are intended to enhance the dissolution of poorly soluble drugs. These analysis methods include dissolution studies, saturation solubility studies, wettability studies, permeation studies, X-ray diffraction studies etc.

[4] = test system: Salmonella species; settings: 46 strains; cited from earlier work
[5] = test system: Escherichia coli Enterotoxigenic; settings: 97 strains; cited from earlier work
[6] = test system: Campylobacter jejuni; settings: cited from earlier work
[7] = test system: Vibrio cholerae; settings: 403 strains; cited from earlier work
[8] = test system: Escherichia coli Enteroaggregative; settings: 75 strains; cited from earlier work
[9] = test system: Helicobacter pylori; settings: 40 strains; MIC50 instead of MIC90; cited from earlier work
[10] = test system: Shigella species; settings: 36 strains; cited from earlier work
[11] = test system: Other; settings: 21 strains; cited from earlier work
[12] = test system: Yersinia enterocolitica; settings: 74 strains; cited from earlier work
[13] = test system: MDCK (Mardin Darby Canine Kidney Cells) cells; experiment: Permeability study using MDCK cells in transwell plates; assay type: in vitro ADME; settings: 10 μmolar apical, 37° C., 2 hours
Description: Three well are to be used per sample. Plates are placed in shaking water bath at 37° C. for 2 hours. Take out 20 μl from apical and 100 μl from basolateral side for sample processing at […]. Lucifer Yellow is used as a marker to see the monolayer integrity of the cells. Propronalol is used as a permeability marker.
Relative area in apical remain 100% even after 2 hours.

Row | SMILES | dose recovered in feces ([1]; almost entirely as unchanged drug) | dose recovered in the urine [1] [%] | area of zone of inhibition [2] | solubility ([3]; pH 6.8, aqueous buffer) [mg/mL] | solubility ([3]; water) [mg/mL] | MIC90 [4] [mg/L] | MIC90 [5] [mg/L] | MIC90 ([6]; 9 strains) [mg/L] | MIC90 ([6]; 54 strains) [mg/L] | MIC90 [7] [mg/L] | MIC90 [8] [mg/L] | MIC50 [9] | MIC90 [10] [mg/L] | MIC90 [11] [mg/L] | MIC90 [12] [mg/L] | amount found in the basolateral side of the transwell (apparent permeability) [13]
1 | CO[C@H]1/C=C/O[C@@]2(C)Oc3c(C)c(O)c4c(O)c(c5c(nc6cc(C)ccn65)c4c3C2=O)NC(=O)/C(C)=C\C=C\[C@H](C)[C@H](O)[C@@H](C)[C@@H](O)[C@@H](C)[C@H](OC(C)=O)[C@@H]1C [14C-rifaximin] | approximately 97% | 0.32 |  |  |  |  |  |  |  |  |  |  |  |  |  | 
2 | CO[C@H]1/C=C/O[C@@]2(C)Oc3c(C)c(O)c4c(O)c(c5c(nc6cc(C)ccn65)c4c3C2=O)NC(=O)/C(C)=C\C=C\[C@H](C)[C@H](O)[C@@H](C)[C@@H](O)[C@@H](C)[C@H](OC(C)=O)[C@@H]1C [rifaximin] |  |  | very negligible | 0.01 (≈ 12.7 µM) | < 0.01 | 64 (≈ 81.4 µM) | 32 (≈ 40.7 µM) | 32 (≈ 40.7 µM) | 128 (≈ 163 µM) | 4 (≈ 5.09 µM) | 32 (≈ 40.7 µM) | 4 (MIC50) μg/ml | 64 (≈ 81.4 µM) | 4 (≈ 5.09 µM) | 16 (≈ 20.4 µM) | No detectable amount
